Results on 56 compounds are retold here after PubChem BioAssay AID720590 (Broad Institute, 2013).

The target in the assay is Mycobacterium tuberculosis BioA (adenosylmethionine-8-amino-7-oxononanoate aminotransferase). Nature of the assay: inhibition of M. tuberculosis BioA aminotransferase – biochemical, plate reader, dry powder samples, dose response (AID 720590). To be noted: M. tuberculosis BioA enzyme assay; for activity change, negative = inhibition: at 10 µM (top of the series).

The structures appear in SMILES notation. Active and inactive are the calls of the source. The rule behind the calls is not given here. Bounds are passed on as bounds.

With `COc1ccc(-c2cc(C(F)(F)F)n3nc(C(=O)Nc4cccnc4)cc3n2)cc1`, the AC50 is less than 80 nM.

As for `CCN(CC)c1ccc2cc(C(=O)c3cccs3)c(=O)oc2c1`, the half-maximal activity concentration (AC50) is less than 80 nM.

On to `O=C(c1ccc2c(c1)OCO2)N1CCN(Cc2ccccc2)CC1`, for which the AC50 is > 20000 nM (inactive).

On to `CC(=O)c1ccc(N2CCN(C(=O)c3ccccc3)CC2)cc1`, for which the AC50 is 161 nM.

`Cc1nc2cc(NC(=O)N3CCN(c4ccccc4)CC3)ccc2o1`: the “activity change, negative = inhibition” value is “inactive”.

`O=C(c1ccc2c(c1)OCO2)N1CCN(c2ccc(F)cc2)CC1`: the “activity change, negative = inhibition” value was “inactive”.

On to `CC(=O)c1ccc(N2CCN(C(=O)c3ccc(C)cc3)CC2)cc1`, for which the concentration at half-maximal activity (AC50) was 746 nM.

On to `Cc1ccc(-c2cc(C(F)(F)F)n3nc(C(=O)Nc4cccnc4)cc3n2)cc1`, for which the AC50 is less than 80 nM.

For the compound `O=C(O)CC/C(=C\c1ccc([N+](=O)[O-])cc1)c1nc2ccccc2s1`, the AC50 was 988 nM.

For the compound `CC(=O)c1ccc(N2CCN(C(=O)c3ccc4c(c3)OCO4)CC2)cc1`, the AC50 is less than 80 nM.

As to `CCc1ccc(N2CCN(C(=O)c3ccc4c(c3)OCO4)CC2)cc1`, the AC50 was > 20000 nM (inactive).

With `O=C(Nc1ccncc1)c1cc2nc(C3CC3)cc(C(F)F)n2n1`, the “activity change, negative = inhibition” value is “inactive”.

For `CC(=O)c1ccc(N2CCN(C(=O)c3ccc4c(c3)OCCO4)CC2)cc1`, the AC50 is 2830 nM.

For the compound `CC(=O)c1ccc(N2CCN(C(=O)c3ccc(F)cc3)CC2)cc1`, the concentration at half-maximal activity (AC50) is 300 nM.

Turning to `Cc1ccc(/C=C(\CCC(=O)O)c2nc3ccccc3s2)cc1[N+](=O)[O-]`, the AC50 is less than 80 nM.

In the case of `O=C(Nc1cccnc1)c1cnn2c(C(F)(F)F)cc(-c3ccccc3)nc12`, the “activity change, negative = inhibition” value was “inactive”.

For the compound `O=C(Nc1ccc2snnc2c1)N1CCCCC1`, the half-maximal activity concentration (AC50) was 1460 nM.

Turning to `Cc1ccccc1/C=C(\CCC(=O)O)c1nc2ccccc2s1`, the AC50 was 7620 nM.

Turning to `COC(=O)c1c(C(=O)OC)c(-c2cccc(F)c2)n2c1CS(=O)C2` (stereo unspecified), the AC50 was 115 nM.

For the compound `CC(=O)c1ccc(N2CCN(C(=O)c3cccc(Cl)c3)CC2)cc1`, the half-maximal activity concentration (AC50) was 95.5 nM.

Take `O=C(Nc1ccc(F)cc1)N1CCN(c2ccccc2)CC1`: the AC50 was 6630 nM.

Turning to `CC(=O)c1ccc(N2CCN(C(=O)c3ccc(Cl)cc3)CC2)cc1`, the AC50 is 751 nM.

With `O=C(Nc1cccnc1)c1cnn2c(C(F)F)cc(C3CC3)nc12`, the AC50 was 252 nM.

`CC(=O)c1ccc(N2CCN(C(=O)c3ccc4ncsc4c3)CC2)cc1`: the AC50 is 246 nM.

`CC(C)(C)c1ccc(C(=O)N2CCN(c3ccc4c(c3)OCO4)CC2)cc1`: the AC50 was > 20000 nM (inactive).

For `COc1cccc(C(=O)N2CCN(c3ccc(C(C)=O)cc3)CC2)c1`, the AC50 was 602 nM.

For the compound `O=C(Nc1ccc(Cl)cc1)c1cc2nc(C3CC3)cc(C(F)(F)F)n2n1`, the “activity change, negative = inhibition” value was “inactive”.

As to `Cc1ccc(/C=C(\CCC(=O)O)c2nc3ccccc3s2)cc1`, the AC50 is 7240 nM.

As for `Cc1ccc(/C=C(\CCCC(=O)O)c2nc3ccccc3s2)cc1[N+](=O)[O-]`, the AC50 is 953 nM.

Regarding `O=C(Nc1ccc2[nH]ccc2c1)N1CCN(c2ccccc2)CC1`, the “activity change, negative = inhibition” value was “inactive”.

Regarding `O=C(COc1ccc2ccc(=O)oc2c1)N1CCN(c2ccc(F)cc2)CC1`, the AC50 is 162 nM.

Consider `O=C(Nc1ccccc1)N1CCN(c2ccccc2)CC1`, for which the “activity change, negative = inhibition” value was “inactive”.

Turning to `COc1ccc(C(=O)N2CCN(c3ccc(C(C)=O)cc3)CC2)cc1`, the half-maximal activity concentration (AC50) was 1280 nM.

As to `O=C(Nc1ccc2snnc2c1)N1CCN(c2ccccc2)CC1`, the concentration at half-maximal activity (AC50) was less than 80 nM.

For the compound `Cc1cc(C)n2nc(C(=O)Nc3cccnc3)cc2n1`, the AC50 was 150 nM.

As to `O=C(O)CC/C(=C\c1ccccc1[N+](=O)[O-])c1nc2ccccc2s1`, the AC50 was > 20000 nM (inactive).

On to `CCOC(=O)N1CCN(C(=O)Nc2ccc3snnc3c2)CC1`, for which the half-maximal activity concentration (AC50) was 424 nM.

Regarding `CC(=O)c1ccc(N2CCN(C(=O)c3ccc(Br)cc3)CC2)c(F)c1`, the concentration at half-maximal activity (AC50) is less than 80 nM.

`COc1cc(/C=C/C(=O)Nc2cccnc2)cc(OC)c1OC`: the AC50 was 107 nM.

In the case of `O=C(Nc1cccc(F)c1)N1CCN(c2ccccc2)CC1`, the half-maximal activity concentration (AC50) was 4330 nM.

Turning to `COc1ccc(N2CCN(C(=O)c3ccc4c(c3)OCO4)CC2)cc1`, the half-maximal activity concentration (AC50) was 5320 nM.

As to `O=C(Nc1cccnc1)c1cc2nc(-c3cccs3)cc(C(F)(F)F)n2n1`, the concentration at half-maximal activity (AC50) was 87.1 nM.

For `CCc1ccc(C(=O)N2CCN(Cc3ccc4c(c3)OCO4)CC2)cc1`, the AC50 is > 20000 nM (inactive).

Turning to `Cc1nc2ccc(NC(=O)N3CCN(c4ccccc4)CC3)cc2s1`, the “activity change, negative = inhibition” value is “inactive”.

On to `O=C(c1ccc2c(c1)OCO2)N1CCN(c2ccccc2)CC1`, for which the AC50 was > 20000 nM (inactive).

For `O=C(Nc1ccc(Cl)c(-c2nc3ccccc3[nH]2)c1)c1cccnc1`, the AC50 was 181 nM.

As to `COc1cccc(NC(=O)N2CCN(c3ccccc3)CC2)c1`, the AC50 was > 20000 nM (inactive).

`COc1cccc(NC(=O)CCC2CCN(C(=O)c3ccc(C(C)=O)s3)CC2)c1`: the AC50 is 225 nM.

Regarding `CC(=O)c1ccc(N2CCN(C(=O)c3cccc(F)c3)CC2)cc1`, the AC50 was 731 nM.

For the compound `Cc1ccc(NC(=O)N2CCN(c3ccccc3)CC2)cc1`, the “activity change, negative = inhibition” value is “inactive”.

As for `CC(=O)c1ccc(N2CCN(Cc3ccc4c(c3)OCO4)CC2)cc1`, the AC50 is 133 nM.

In the case of `CC(=O)c1ccc(N2CCN(C(=O)c3cccnc3)CC2)cc1`, the concentration at half-maximal activity (AC50) is 2040 nM.

`O=C(Nc1ccc2snnc2c1)N1CCOCC1`: the concentration at half-maximal activity (AC50) was 896 nM.

Consider `COc1ccc(NC(=O)N2CCN(c3ccccc3)CC2)cc1`, for which the “activity change, negative = inhibition” value is “inactive”.

In the case of `Cc1cc(C)n2nc(C(=O)Nc3cccnc3)nc2n1`, the AC50 was 673 nM.

With `O=C(c1ccc2c(c1)OCO2)N1CCN(c2ccc(Cl)cc2)CC1`, the AC50 is 4320 nM.
